In ChEMBL document CHEMBL5214990, “Novel Aryl Alkamidazole Derivatives as Multifunctional Antifungal Inhibitors: Design, Synthesis, and Biological Evaluation” (J Med Chem, 2022):
pIC50: −log10 of the molar value. In brackets after ≈: the same amount, converted by molar mass. Activity calls are given as the source filed them. No cut-off for these calls is given here.

What was measured:
Candida albicans [1] = test: Antifungal activity against Candida albicans ATCC SC5314 assessed as inhibition of fungal growth measured after 72 hrs by CLSI based liquid medium dilution method; format: functional
Pichia kudriavzevii = test: Antifungal activity against Candida krusei ATCC 6258 assessed as inhibition of fungal growth measured after 72 hrs by CLSI based liquid medium dilution method; format: functional
Aspergillus fumigatus = test: Antifungal activity against Aspergillus fumigatus KM8001 assessed as inhibition of fungal growth measured after 72 hrs by CLSI based liquid medium dilution method; format: functional
Candida albicans [2] = test: Antifungal activity against fluconazole-resistant Candida albicans CaR assessed as inhibition of fungal growth measured after 72 hrs by CLSI based liquid medium dilution method; format: functional
Candida albicans [3] = test: Induction of mitochondrial membrane depolarization in Candida albicans assessed as fungal cells with depolarized mitochondria measured after 24 hrs by JC-1 staining based flow cytometry (reference value: 3.22%); format: functional
Candida albicans [4] = test: Induction of apoptosis in Candida albicans assessed as viable cells measured after 24 hrs by Annexin V-FITC/PI staining based flow cytometry (reference value: 95.7%); format: functional
[5] = biological target: Lanosterol 14-alpha demethylase (Candida albicans (strain SC5314 / ATCC MYA-2876) (Yeast), UniProt P10613); test: Inhibition of CYP51 in Candida albicans ATCC SC5314 assessed as lanosterol content at 4 ug/ml measured after 48 hrs by GC-MS analysis; design: scale not given: the % may be the effect or the level left; details: at 4 µg/mL
Candida albicans [6] = test: Antifungal activity against Candida albicans infected in mouse assessed as reduction in fungal proliferation in the infection region at 20 mg/kg, ip administered on days 2,4,6,8,10,12 and measured on day 14 by GMS staining based analysis; format: functional, organism-based; details: time 13.0 day
Candida albicans [7] = test: Antifungal activity against Candida albicans infected in mouse assessed as reduction in total amount of fungal cells in infection region at 20 mg/kg, ip administered on days 2,4,6,8,10,12 and measured on day 14 by GMS staining based analysis; format: functional, organism-based; details: time 13.0 day
Candida albicans [8] = test: Antifungal activity against Candida albicans infected in mouse assessed as disappearance of nuclear aggregation in the infection region at 20 mg/kg, ip administered on days 2,4,6,8,10,12 and measured on day 14 by GMS staining based analysis; format: functional, organism-based; details: time 13.0 day
Candida albicans [9] = test: Antifungal activity against Candida albicans infected in mouse assessed as reduction in total amount of fungal cells in infection region at 20 mg/kg, ip administered on days 2,4,6,8,10,12 and measured on day 14 by hematoxyin-eosin staining based analysis; format: functional, organism-based; details: time 13.0 day
Mus musculus [10] = test: Anti-inflammatory activity in mouse infected with Candida albicans assessed as reduction in IL-6R expression in infection tissues at 20 mg/kg, ip administered on days 2,4,6,8,10,12 and measured on day 14 by western blot analysis; format: functional, organism-based; details: time 13.0 day
Mus musculus [11] = test: Anti-inflammatory activity in mouse infected with Candida albicans assessed as reduction in IL-6R expression in spleen at 20 mg/kg, ip administered on days 2,4,6,8,10,12 and measured on day 14 by immunohistochemical analysis; format: functional, organism-based; details: time 13.0 day
Mus musculus [12] = test: Anti-inflammatory activity in mouse infected with Candida albicans assessed as reduction in PD-L1 expression in infection tissue at 20 mg/kg, ip administered on days 2,4,6,8,10,12 and measured on day 14 by western blot analysis; format: functional, organism-based; details: time 13.0 day
[13] = biological target: T1, Prostaglandin G/H synthase 2 (Homo sapiens, UniProt P35354); test: Inhibition of COX2 (unknown origin) assessed as reduction in PGF2alpha content using arachidonic acid as substrate preincubated for 10 mins followed by substrate addition and measured after 2 mins by enzyme immunoassay
T1 sequence (P35354 whole entry): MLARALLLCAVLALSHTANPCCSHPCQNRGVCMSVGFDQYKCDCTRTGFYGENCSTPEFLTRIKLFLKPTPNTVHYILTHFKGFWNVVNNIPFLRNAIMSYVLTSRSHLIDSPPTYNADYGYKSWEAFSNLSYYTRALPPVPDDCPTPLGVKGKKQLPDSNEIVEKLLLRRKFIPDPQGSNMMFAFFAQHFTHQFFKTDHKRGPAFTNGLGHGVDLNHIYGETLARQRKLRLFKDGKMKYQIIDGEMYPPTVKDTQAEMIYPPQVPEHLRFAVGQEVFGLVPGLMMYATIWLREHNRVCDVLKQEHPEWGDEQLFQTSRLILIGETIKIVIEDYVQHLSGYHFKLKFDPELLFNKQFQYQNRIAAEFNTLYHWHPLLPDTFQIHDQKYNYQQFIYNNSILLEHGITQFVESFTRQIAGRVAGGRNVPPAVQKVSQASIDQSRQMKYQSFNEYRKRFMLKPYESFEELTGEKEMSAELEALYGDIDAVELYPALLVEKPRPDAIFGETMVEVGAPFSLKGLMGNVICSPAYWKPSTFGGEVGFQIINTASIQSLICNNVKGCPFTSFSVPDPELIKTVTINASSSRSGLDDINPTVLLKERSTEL

[14] = Increase in intracellular ROS level in Candida albicans assessed as fold increase in fluorescence intensity measured after 12 hrs by fluorescence microscopic analysis relative to control; format: functional
[15] = Increase in intracellular ROS level in Cryptococcus neoformans assessed as fold increase in fluorescence intensity measured after 12 hrs by fluorescence microscopic analysis relative to control; format: functional
Candida albicans [16] = test: Antifungal activity against Candida albicans infected in mouse assessed as shrinkage of fungal infection region at 20 mg/kg, ip administered on days 2,4,6,8,10,12 and measured on day 14; format: functional, organism-based; details: time 13.0 day
[17] = Toxicity in mouse infected with Candida albicans assessed as morphological changes in lungs at 20 mg/kg, ip administered on days 2,4,6,8,10,12 and measured on day 14 by hematoxyin-eosin staining based analysis; format: organism-based; details: in vivo, 312 h, time 13 day
[18] = Toxicity in mouse infected with Candida albicans assessed as morphological changes in spleen at 20 mg/kg, ip administered on days 2,4,6,8,10,12 and measured on day 14 by hematoxyin-eosin staining based analysis; format: organism-based; details: in vivo, 312 h, time 13 day
[19] = Toxicity in mouse infected with Candida albicans assessed as morphological changes in heart at 20 mg/kg, ip administered on days 2,4,6,8,10,12 and measured on day 14 by hematoxyin-eosin staining based analysis; format: organism-based; details: in vivo, 312 h, time 13 day
[20] = Toxicity in mouse infected with Candida albicans assessed as morphological changes in kidney at 20 mg/kg, ip administered on days 2,4,6,8,10,12 and measured on day 14 by hematoxyin-eosin staining based analysis; format: organism-based; details: in vivo, 312 h, time 13 day
Mus musculus [21] = test: Immunomodulatory activity in mouse infected with Candida albicans assessed as increase in expression intensity of CD3+ T cells in spleen at 20 mg/kg, ip administered on days 2,4,6,8,10,12 and measured on day 14 by immunohistochemical staining analysis relative to control; format: functional, T-cell; details: time 13 day
Mus musculus [22] = test: Immunomodulatory activity in mouse infected with Candida albicans assessed as increase in expression intensity of CD8+ T cells in spleen at 20 mg/kg, ip administered on days 2,4,6,8,10,12 and measured on day 14 by immunohistochemical staining analysis relative to control; format: functional, T-cell; details: time 13 day
Mus musculus [23] = test: Immunomodulatory activity in mouse infected with Candida albicans assessed as increase in expression intensity of CD8+ T cells in spleen at 20 mg/kg, ip administered on days 2,4,6,8,10,12 and measured on day 14 by immunohistochemical staining analysis relative to fluconazole; format: functional, T-cell; details: time 13 day

Lanosterol 14-alpha demethylase, sequence (P10613 whole entry): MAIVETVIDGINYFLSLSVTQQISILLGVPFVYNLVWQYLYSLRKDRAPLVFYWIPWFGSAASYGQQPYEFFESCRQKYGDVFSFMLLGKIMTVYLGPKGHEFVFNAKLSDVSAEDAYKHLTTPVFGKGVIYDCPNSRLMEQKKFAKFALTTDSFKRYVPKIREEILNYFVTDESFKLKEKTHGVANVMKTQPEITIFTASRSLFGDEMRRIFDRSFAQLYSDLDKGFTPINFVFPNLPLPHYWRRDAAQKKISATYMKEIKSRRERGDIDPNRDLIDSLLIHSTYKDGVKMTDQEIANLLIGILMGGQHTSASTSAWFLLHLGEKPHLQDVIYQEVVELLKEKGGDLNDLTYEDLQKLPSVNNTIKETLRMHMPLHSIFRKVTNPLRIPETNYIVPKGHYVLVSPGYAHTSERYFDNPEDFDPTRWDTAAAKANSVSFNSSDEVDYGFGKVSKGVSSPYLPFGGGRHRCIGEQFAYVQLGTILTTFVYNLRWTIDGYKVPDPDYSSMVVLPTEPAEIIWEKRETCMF

Row | Structure (SMILES) | MIC50 (Candida albicans [1]) [µg/mL] | MIC50 (Pichia kudriavzevii) [µg/mL] | MIC50 (Aspergillus fumigatus) [µg/mL] | MIC50 (Candida albicans [2]) [µg/mL] | Activity (Candida albicans [3]) [%] | Activity (Candida albicans [4]) [%] | Activity [5] [%] | Activity (Candida albicans [6]) | Activity (Candida albicans [7]) | Activity (Candida albicans [8]) | Activity (Candida albicans [9]) | Activity (Mus musculus [10]) | Activity (Mus musculus [11]) | Activity (Mus musculus [12]) | pIC50 [13] | fold change (FC) [14] | fold change (FC) [15] | Activity (Candida albicans [16]) | Activity [17] | Activity [18] | further results
1 | OC(Cn1cncn1)(Cn1cncn1)c1ccc(F)cc1F [FLUCONAZOLE] | 0.5 (≈ 1.63 µM) | 1 (≈ 3.27 µM) | > 8 | > 8 | 19.1 | 68.7 | 35.17 | Active | Active | Active | Active | Active | Active | Active |  |  |  |  |  |  | 
2 | C[C@H](C(=O)N(C)CC(O)(Cn1ccnc1)c1ccc(Cl)cc1)c1ccc(-c2ccccc2)c(F)c1 (some centres undefined) | 0.125 (≈ 0.254 µM) | 0.25 (≈ 0.508 µM) | 2 (≈ 4.07 µM) | 1 (≈ 2.03 µM) | 67.3 | 44.4 | 39.74 | Active | Active | Active | Active | Active | Active | Active | 5.64 | 4 | 4 | Active | Non-Toxic | Non-Toxic | Activity [19]: Non-Toxic; Activity [20]: Non-Toxic; fold change (FC) (Mus musculus [21]): 2.12; fold change (FC) (Mus musculus [22]): 2.12; fold change (FC) (Mus musculus [23]): 2.12
3 | C[C@H](C(=O)N(C)CC(O)(Cn1ccnc1)c1ccc(Cl)cc1Cl)c1cccc(C(=O)c2ccccc2)c1 (some centres undefined) | 0.125 (≈ 0.233 µM) | 0.125 (≈ 0.233 µM) | 2 (≈ 3.73 µM) | 1 (≈ 1.86 µM) | 66.6 | 43.8 | 38.57 | Active | Active | Active | Active | Active | Active | Active | 5.71 | 4 | 4 | Active | Non-Toxic | Non-Toxic | Activity [19]: Non-Toxic; Activity [20]: Non-Toxic; fold change (FC) (Mus musculus [21]): 2.12; fold change (FC) (Mus musculus [22]): 2.12; fold change (FC) (Mus musculus [23]): 2.12
